Like-named read-outs stand apart in the source and are kept apart here.
What was measured:
[1] = target: T1, human DHRS9 (Homo sapiens, UniProt Q9BPW9); test: Cellular model of oxidation of 3α-diol by DHRS9: inhibition of 3α-diol conversion to DHT, followed via AR transactivation (luciferase reporter) in DHRS9-transfected PALM cells; assay type: cell-based; conditions: read-out: inhibition of 3α-diol conversion
T1 construct: expressed in transfected cells; host or cells: PALM cells (PC-3 stably co-transfected with human androgen receptor and pMMTV-neo-Luc)
T1 sequence (Q9BPW9 18-319): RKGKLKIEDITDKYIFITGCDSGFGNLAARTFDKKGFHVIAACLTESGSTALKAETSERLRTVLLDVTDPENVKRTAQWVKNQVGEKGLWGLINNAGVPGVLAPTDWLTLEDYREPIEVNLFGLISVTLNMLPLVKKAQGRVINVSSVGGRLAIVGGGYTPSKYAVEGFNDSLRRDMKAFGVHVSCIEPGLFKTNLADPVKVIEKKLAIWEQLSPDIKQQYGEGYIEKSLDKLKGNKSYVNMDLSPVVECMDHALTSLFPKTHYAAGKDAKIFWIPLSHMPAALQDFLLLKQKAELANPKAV
Text: (§1) The cDNA coding for human DHRS9 was sub-cloned into a pcDNA3.1/zeo expression vector. This was then transfected into a cell line denoted PALM, standing for PC-3 Androgen receptor Luciferase MMTV. This cell line originates from PC-3 cells which have been stably co-transfected by the expression vector coding for the human androgen receptor (pSG5-puro-h androgen receptor (AR)) and by the reporter gene vector coding for luciferase (pMMTV-neo-Luc), the promoter for which has AR response elements.
(§2) The activity of conversion of 3α-diol to DHT by DHRS9 can thus be followed via AR transactivation.

[2] = system: human androgen receptor (AR); test: Dose-response of the 3α-diol substrate for AR transactivation in PALM cells (PC-3 Androgen receptor Luciferase MMTV); assay type: cell-based
Text: as §1, §2

CC1(C)[C@@H](OC(=O)CCC(=O)O)CC[C@]2(C)[C@H]3C(=O)C=C4[C@@H]5C[C@@](C)(C(=O)O)CC[C@]5(C)CC[C@@]4(C)[C@]3(C)CC[C@@H]12 [carbenoxolone, Carbenoxolone]
inhibition at 100 µM ([1]; concentration of 100 μM, PALM cells transfected with DHRS9): 35%

CC(C)=CCCC(C)=CC=O (racemic) [citral, Citral]
inhibition at 100 µM [1]: 86%

C[C@]12CC[C@@H](O)C[C@@H]1CC[C@@H]1[C@@H]2CC[C@]2(C)[C@@H](O)CC[C@@H]12 [3α-diol, 3α-androstanediol]
AC50 ([2]; cells transfected with DHRS9): 19 nM
AC50 ([2]; non-transfected cells): 189 nM
